{
  "source": "PubChem BioAssay (NCI)",
  "note": "Values joined by “and” are separate entries in the source; they are usually repeats but may differ in a detail not shown here. Equal values may be shown once.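 Test compounds were applied to cells in 96-well plates for 48 hours at 5 doses. The concentration for 50% growth inhibition is given as GI50. TGI marks complete inhibition of growth.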",
  "data": [
    {"tested_on": "MDA-MB-468 breast", "assay": "NCI anticancer screen, dose series, 48 h", "values": [
      {"smiles": "O=C1Nc2ccc(Cl)cc2/C1=C\\c1c(-c2ccc(F)cc2)nc2ccccn12", "GI50": "2080 nM", "TGI": "6190 nM"},
      {"smiles": "CN(C(=O)c1ccc(F)cc1C(F)(F)F)C1CCN(c2nnc(-c3ccnn3C)c3ccccc23)CC1", "GI50": "7100 nM", "TGI": "61400 nM"},
      {"smiles": "COc1cc(-c2c3c(cn2S(=O)(=O)c2ccccc2)-c2nc(N)sc2CC3)cc(OC)c1OC", "GI50": "426 nM", "TGI": "22200 nM"},
      {"smiles": "COC1=CC(c2ccc[nH]2)=N/C1=C\\c1[nH]c(C)c(C(=O)CCC(=O)Oc2ccc3c(c2)CCC2C3CC[C@]3(C)C(=O)CC[C@@H]23)c1C", "note": "(some centres undefined)", "GI50": "16900 nM", "TGI": "> 100000 nM"},
      {"smiles": "COc1ccc(-c2cc3c4c(nc5ccccc5c4c2)CC(c2cc(OC)c(OC)c(OC)c2)O3)cc1", "note": "(centres undefined)", "GI50": "2630 nM", "TGI": "10500 nM"},
      {"smiles": "c1ccc2c(c1)O[As](O[As]1Oc3ccccc3O1)O2", "GI50": "1250 nM", "TGI": "4040 nM"},
      {"smiles": "Brc1c[n+](Cc2ccc3ccccc3c2)cn1Cc1ccc2ccccc2c1", "GI50": "624 nM", "TGI": "2570 nM"},
      {"smiles": "O=C1Nc2ccc(F)c3c(OCCO)cc(-c4ccc[nH]4)c1c23", "GI50": "528 nM", "TGI": "1830 nM"},
      {"smiles": "COc1ccc(/C=C2/CN(C(=O)c3ccccc3F)C/C(=C\\c3ccc(OC)cc3)C2=O)cc1", "GI50": "1910 nM", "TGI": "4490 nM"},
      {"smiles": "CCOC(=O)C1(Cc2ccc(C)cc2)Cc2ccc(C)cc2C1=O", "note": "(centres undefined)", "GI50": "10400 nM", "TGI": "37400 nM"},
      {"smiles": "Cn1cc(-c2cc3c(Nc4ccc(CC(=O)Nc5cc(C(C)(C)C)on5)cc4)ncnc3[nH]2)cn1", "GI50": "325 nM and 242 nM", "TGI": "1080 nM and 737 nM"},
      {"smiles": "COc1ccc(-c2nc(-c3nc4ccc(F)cc4[nH]3)cc3c2[nH]c2ccccc23)cc1", "GI50": "2080 nM", "TGI": "> 100000 nM"},
      {"smiles": "OCC1SC(n2cnc3cncnc32)C(O)C1O", "note": "(centres undefined)", "GI50": "> 100000 nM", "TGI": "> 100000 nM"},
      {"smiles": "O=S(=O)(Nc1ccc(-c2nc(-c3cccc(OCCN4CCOCC4)c3)c(-c3ccnc(Br)c3)[nH]2)cc1)c1ccccc1", "GI50": "1850 nM", "TGI": "5240 nM"},
      {"smiles": "C[C@@H]1O[C@@H](O[C@H]2C[C@@H](O)[C@]3(CO)C4C(CC[C@]3(O)C2)[C@@]2(O)CC[C@H](C3=CC(=O)OC3)[C@@]2(C)C[C@H]4O)[C@H](O)[C@H](O)[C@H]1O", "note": "(some centres undefined)", "GI50": "84.1 nM", "TGI": "187 nM"},
      {"smiles": "CS(=O)(=O)c1nccc(-c2c(-c3cccc(OCc4ccc(F)cc4)c3)nc3sccn23)n1", "GI50": "1990 nM", "TGI": "3980 nM"},
      {"smiles": "CCOc1ccc(NC(=O)Nc2cc(C(C)C)ccc2C)cc1", "GI50": "5670 nM", "TGI": "51800 nM"},
      {"smiles": "O=C(CC12CC3CC(CC(C3)C1)C2)NCCOCCOCCNC(=O)c1cc2c(o1)C(=O)c1ccccc1C2=O", "GI50": "1210 nM", "TGI": "3300 nM"},
      {"smiles": "OCCN1CCN(CCCN2c3ccccc3Sc3ccc(C(F)(F)F)cc32)CC1", "GI50": "827 nM and 3630 nM and 2630 nM", "TGI": "2080 nM and 15400 nM and 11300 nM"},
      {"smiles": "FC(F)(F)c1cc(Nc2ccc3c(OCCCN4CCOCC4)cccc3n2)ccc1Cl", "GI50": "2170 nM", "TGI": "5920 nM"},
      {"smiles": "O=C1C=C(SCCO)C(=O)c2ccccc21", "GI50": "1510 nM", "TGI": "3460 nM"},
      {"smiles": "CCC(=O)Sc1ccccc1C(=O)Nc1ccc(Cl)cc1", "GI50": "9970 nM", "TGI": "> 100000 nM"},
      {"smiles": "COc1ccc2c(c1)O/C(=C\\c1cccc(OCC(=O)Nc3nc4ccccc4s3)c1)C2=O", "GI50": "6040 nM", "TGI": "> 100000 nM"},
      {"smiles": "COCCNCC(O)Cn1c2ccc(Cl)cc2c2cc(Cl)ccc21", "note": "(centres undefined)", "GI50": "1780 nM", "TGI": "3850 nM"},
      {"smiles": "COc1ccc2c(c1)Oc1nc(N)c(C#N)c(N)c1C2Sc1ccc(SC)cc1", "note": "(centres undefined)", "GI50": "1750 nM", "TGI": "3590 nM"},
      {"smiles": "Cc1cc(N(CCCl)CCCl)ccc1C=Nc1cccnc1", "GI50": "71.2 nM", "TGI": "521 nM"},
      {"smiles": "CN1CCN(c2ccc(Nc3nc(NCCCNS(=O)(=O)c4cccc5ccccc45)c4sccc4n3)cc2)CC1", "GI50": "2100 nM", "TGI": "6230 nM"},
      {"smiles": "COc1ccc(OC)c(/C=C/[N+](=O)[O-])c1", "GI50": "1220 nM", "TGI": "2680 nM"},
      {"smiles": "COC[C@H]1C(=O)NCC(=O)N2NCCC[C@H]2C(=O)N(O)[C@H](C)C(=O)O[C@@H](C(C)C)[C@H](NC(=O)[C@](C)(O)[C@]2(O)CC[C@@H](CC(C)C)[C@H](C)O2)C(=O)N2NCCC[C@@H]2C(=O)N1O", "GI50": "14 nM", "TGI": "31.1 nM"},
      {"smiles": "O=C(c1ccccc1)c1ccc(-c2ccc(O)cc2)cc1", "GI50": "1940 nM", "TGI": "8860 nM"},
      {"smiles": "O=C(NNc1nc2cc(F)ccc2n2c(CN3CCOCC3)ccc12)c1ccccc1", "GI50": "193 nM", "TGI": "894 nM"},
      {"smiles": "CCCC[C@@H]1NC(=O)[C@H](CCCCN)NC(=O)[C@H](CCCNC(=N)N)NC(=O)[C@H](CC(C)C)NC(=O)[C@@H](NC(=O)[C@H](Cc2cccc(Cl)c2)NC(=O)[C@@H]2CCCN2C(=O)[C@@H](NC(C)=O)C(C)C)CCSSC[C@@H](C(=O)N[C@@H](CCCCN)C(=O)N2CCC[C@H]2C(=O)N2CCC[C@H]2C(=O)N[C@@H](CCC(=O)O)C(N)=O)NC(=O)[C@H](Cc2ccccc2)NC(=O)[C@H](CO)NC(=O)[C@H](C)NC(=O)[C@@H]2CCCN2C1=O", "GI50": "> 50000 nM", "TGI": "> 50000 nM"},
      {"smiles": "C=C1C(=O)O[C@H]2[C@H]1CC/C(COC(=O)OCCCCCOC(=O)OC/C1=C/CC[C@@]3(C)O[C@H]3[C@H]3OC(=O)C(=C)[C@@H]3CC1)=C\\CC[C@@]1(C)O[C@@H]21", "GI50": "186 nM", "TGI": "458 nM"},
      {"smiles": "Cn1ncc2cc(-c3cnc(N)c(Cl)c3N3CCC4(CCNC4=O)CC3)ccc21", "GI50": "16400 nM", "TGI": "63100 nM"},
      {"smiles": "COc1cnc2c(c1)C(=O)c1c-2n(CCCn2ccnc2)c(=O)c2cc(OC)c(OC)cc12", "GI50": "51.1 nM", "TGI": "358 nM"},
      {"smiles": "Cc1ccc(S(=O)(=O)N(C)C)cc1[N+](=O)[O-]", "GI50": "> 100000 nM", "TGI": "> 100000 nM"},
      {"smiles": "Cn1ncc2c(Nc3ccc(Br)cc3)nc(Nc3ccc(Br)cc3)nc21", "GI50": "2110 nM", "TGI": "7780 nM"},
      {"smiles": "CC1(C)CCC(S(=O)(=O)c2ccc3c(c2)/C(=N\\O)c2cc(S(=O)(=O)N4CCC(O)(c5cccc(C(F)(F)F)c5)CC4)ccc2-3)CC1", "GI50": "17.6 nM", "TGI": "35.6 nM"},
      {"smiles": "Cc1ccc(NS(=O)(=O)c2ccc(-c3cnc(C4CC4)o3)cc2)cc1", "GI50": "1170 nM", "TGI": "5830 nM"},
      {"smiles": "ClCCN(CCCl)Cc1ccc(Nc2ccnc3cc(Cl)ccc23)cc1", "GI50": "702 nM", "TGI": "2990 nM"},
      {"smiles": "O=C(NCc1cn(Cc2cccc(Oc3ccccc3)c2)nn1)c1cccnc1Nc1ccccc1", "GI50": "2880 nM", "TGI": "57400 nM"},
      {"smiles": "Cc1nc2sc(C(=O)Nc3cccc4ccccc34)c(N)c2cc1C(C)O", "note": "(centres undefined)", "GI50": "126 nM", "TGI": "416 nM"},
      {"smiles": "CCCOC(=O)N[C@H]1CCc2c(Br)c(OC)c(OC)c(OC)c2-c2ccc(SC)c(=O)cc21", "GI50": "< 10 nM", "TGI": "18100 nM"},
      {"smiles": "O=C1C(=O)c2ccc(Br)cc2-c2cc(Br)ccc21", "GI50": "604 nM", "TGI": "1430 nM"},
      {"smiles": "Cc1c(Cl)cccc1NC(=O)CC1Sc2ccccc2NC1=O", "note": "(centres undefined)", "GI50": "12800 nM", "TGI": "37400 nM"},
      {"smiles": "COc1cc(O)c2c(c1)[C@H]1O[C@@H]1C[C@H](O)[C@H](O)C(=O)/C=C\\C[C@H](C)OC2=O", "GI50": "1100 nM", "TGI": "5640 nM"},
      {"smiles": "CO/N=C(\\c1ccccc1)c1cnn(-c2ccccc2)c1N", "GI50": "> 25000 nM", "TGI": "> 25000 nM"}
    ]}
  ]
}
